{
  "source": "patent US10792287B2",
  "about": "“Methods for treating mitochondrial diseases” (The Regents of the University of California, priority 2015, dated 2020)",
  "key": {"[1]": {"system": "control osteosarcoma cells and LHON mutant (11778 G>A) cells", "assay": "Validation of complex I-driven ATP synthesis assay with substrates and inhibitors of mitochondrial complexes", "format": "cell-based", "details": "for mitochondrial ATP synthesis: inhibitor at 1 μM, malate/pyruvate substrates, permeabilized cells", "source_text": "The data is presented as ATP synthesis rate+standard deviation from one representative experiment."}, "LHON cybrids (11778 G>A)": {"system": "LHON cybrids (11778 G>A)", "assay": "Complex I-driven ATP synthesis in rotenone-inhibited LHON mutant cybrids (luciferase-based, high-throughput screen and concentration-response)", "format": "cell-based"}, "control healthy cybrid": {"system": "control healthy cybrid", "assay": "Mitochondrial copy number (MT-TL1/B2M ratio), control cybrids", "format": "cell-based", "details": "control cells; 24 hrs exposure", "description": "(§1) FIGS. 14A-14C illustrate the effect of drugs on the mitochondrial copy number. Difference of mitochondrial copy number between 11778 (G>A) mutant and control cybrids (FIG. 14A). Effect of zolpidem and papaverine on the control healthy cybrid mitochondrial copy number (FIG. 14B) and 11778 (G>A) mutant cybrid mitochondrial copy number (FIG. 14C). Cells were treated with either vehicle or one of the drugs at specified concentration for 24 h. The cells were harvested after 24 h and the ratio between MT-TL1 and B2M was determined. Data is presented as average relative fold change±std. deviation from three independent observations. Statistical significance (p<0.05) is denoted by ‘*’ and was determined by one way ANOVA and Dunett's post hoc test."}, "[2]": {"system": "11778 (G>A) mutant cybrid", "assay": "Mitochondrial copy number (MT-TL1/B2M ratio), mutant cybrids", "format": "cell-based", "details": "LHON mutant cells [11778(G>A)]; 24 hrs exposure", "description": "as §1"}, "Ndufs4 knockout mice": {"system": "Ndufs4 knockout mice", "assay": "Visual cliff test", "format": "in vivo, mouse", "details": "P21-P35 treatment; papaverine 20 mg/kg, zolpidem 20 mg/kg, rapamycin 8 mg/kg i.p.; idebenone 200 mg/kg oral"}, "[3]": {"system": "innate immune/inflammatory response in Ndufs4 KO retina", "assay": "Retinal gene expression of innate immune and inflammatory markers after drug treatment (Example 3)", "format": "in vivo, mouse", "details": "Ndufs4 KO mice; doses as in drug formulation", "description": "The graphs represent RNA expression of B2m (FIG. 21A), Tlr2 (FIG. 21B), Cxc110 (FIG. 21C), Cc15 (FIG. 21D), and Aif1 (FIG. 21E) in the wild type and Ndufs4 knockout retina. Bars represent mean delta Ct values normalized to housekeeping genes, Actb and Mapk1. Error bars represent standard error of the mean. Statistical significance was determined by two-tailed student's t test. * P<0.05, ** P<0.01, **** P<0.0001.\n(§2) Wild type and Ndufs4 knockout mice were placed in one of five groups: vehicle, papaverine (20 mg/kg), zolpidem (20 mg/kg), rapamycin (8 mg/kg), or idebenone (200 mg/kg). For papaverine, zolpidem, and rapamycin, drug was dissolved in DMSO which was diluted in 5% PEG-400/5% Tween-20 in PBS. Vehicle contained all components except for the drug. The solution was then sterile filtered and intraperitoneal injections were performed using a 30 gauge needle. Idebenone was administered as a jelly and consumed orally.\nWe have previously shown that inflammatory gene expression of Aif1, Tlr2, B2m, Cc15, and Cxc110 are all elevated in the Ndufs4 KO mouse compared to wild type by more than 3-fold, indicating an inflammatory pathomechanism of mitochondrial blindness (Yu et al., Proc Natl Acad Sci USA, 2015, 112(42): E5689-98). […] Papaverine, zolpidem, rapamycin, and idebenone were administered to Ndufs4 KO mice to determine whether their protection of vision (FIG. 20) was through an anti-inflammatory mechanism of action. […] Thus, papaverine, zolpidem, and rapamycin appear to protect mitochondrial loss of vision through an antiinflammatory mechanism."}, "Ndufs4 KO mice [4]": {"system": "Ndufs4 KO mice", "assay": "Starburst amacrine cell count (ChAT staining of whole retina)", "format": "in vivo, mouse", "details": "two weeks (P21-P35) intraperitoneal injections", "description": "20× confocal images of whole retina stained with ChAT (marker of starburst amacrine cells) from wild type (FIG. 22A), Ndusf4 KO vehicle treated (FIG. 22B), Ndufs4 KO papaverine treated (FIG. 22C), Ndufs4 KO zolpidem treated (FIG. 22D), and Ndufs4 KO rapamycin treated (FIG. 22E) are shown.\nas §2"}, "Ndufs4 KO mice [5]": {"system": "Ndufs4 KO mice", "assay": "Microglia activation (Iba1 staining of whole mount retinas)", "format": "in vivo, mouse", "details": "two weeks (P21-P35) intraperitoneal treatment"}, "[6]": {"details": "20 h; read-out: Fold change of ATP synthesis rate greater than 2x Median Absolution Deviation"}},
  "note": "Counter-ions that a name gives are not always drawn. Like-named read-outs stand apart in the source and are kept apart here.",
  "data": [
    {"compound": "O=C(O)CCC(=O)O", "note": "[succinate]", "values": [
      {"measurement": "reversal of inhibitor-induced inhibition of ATP synthesis", "setting": "[1]; succinate 5 mM vs rotenone, ascorbate/TMPD vs antimycin", "result": "reversed"}
    ]},
    {"compound": "Cn1cnc([N+](=O)[O-])c1Sc1ncnc2nc[nH]c12", "note": "[Azathioprine, azathioprine]", "values": [
      {"measurement": "fold induction at 10 µM", "setting": "LHON cybrids (11778 G>A); [6]", "result": 1.4}
    ]},
    {"compound": "Cc1ccc(-c2nc3ccc(C)cn3c2CC(=O)N(C)C)cc1", "note": "[zolpidem]", "values": [
      {"measurement": "fold induction at 10 µM", "setting": "LHON cybrids (11778 G>A); 20 h, read-out: Fold change of ATP synthesis rate greater than 2x Median Absolution Deviation", "result": 1.4},
      {"measurement": "reversal of rotenone sensitivity of complex I-driven ATP synthesis", "setting": "LHON cybrids (11778 G>A); different concentrations of drug 22 h, then rotenone 0.03 μM 2 h", "result": "dose-dependently reversed the rotenone-sensitivity"},
      {"measurement": "ATP synthesis rate relative to vehicle-treated cells after rotenone", "setting": "LHON cybrids (11778 G>A); zolpidem 30 μM pre-treatment; rotenone 0.03 μM", "result": 2, "unit": "times"},
      {"measurement": "ATP synthesis rate compared to vehicle pre-treated cells", "setting": "LHON cybrids (11778 G>A); zolpidem 3, 10, and 30 μM pre-treatment; rotenone 0.03 μM", "result": "significantly higher ATP synthesis rate"},
      {"measurement": "ratio of mtDNA/nDNA", "setting": "control healthy cybrid", "result": "did not significantly change the ratio of mtDNA/nDNA"},
      {"measurement": "ratio of mtDNA/nDNA", "setting": "[2]", "result": "did not significantly change the ratio of mtDNA/nDNA"},
      {"measurement": "visual function (median # edge detections)", "setting": "Ndufs4 knockout mice", "result": "visual function was preserved"},
      {"measurement": "innate immune/inflammatory gene expression (B2m, Tlr2, Cxcl10, Ccl5, Aif1) in retina", "setting": "[3]", "result": "significantly inhibited a portion of the innate immune/inflammatory response"},
      {"measurement": "starburst amacrine cell loss", "setting": "Ndufs4 KO mice [4]", "result": "significant protection of startburst amacrine cells from apoptosis"},
      {"measurement": "microglia activation", "setting": "Ndufs4 KO mice [5]", "result": "decrease in microglia activation"}
    ]},
    {"compound": "O=S(=O)(NCCNC/C=C/c1ccc(Br)cc1)c1cccc2cnccc12", "note": "[H89]", "values": [
      {"measurement": "effect of H89 on rotenone rescue effect of zolpidem", "setting": "LHON cybrids (11778 G>A); H89 3 μM with zolpidem 30 μM", "result": "reversed the rotenone rescue effect of zolpidem"},
      {"measurement": "effect of PKA inhibitor on papaverine's protection from rotenone", "setting": "LHON cybrids (11778 G>A); papaverine 30 μM and H89 3 μM for 22 h, then rotenone 0.03 μM 2 h", "result": "did not decrease papaverine's ability to protect from rotenone"}
    ]},
    {"compound": "CC[C@H]1/C=C/C=C/C[C@@H](C)[C@H](O)[C@@](C)(O)C(=O)[C@@H](C)[C@H](O)[C@@H](C)C(=O)[C@@H](C)[C@H](O)[C@@H](C)/C=C/C(=O)O[C@@H]2[C@H](C)[C@H](CC1)O[C@]1(CC[C@H](C)[C@H](C[C@@H](C)O)O1)[C@H]2C", "note": "[oligomycin]", "values": [
      {"measurement": "mitochondrial ATP synthesis", "setting": "[1]", "result": "inhibited the mitochondrial ATP synthesis"}
    ]},
    {"compound": "O=c1[nH]cc(F)c(=O)[nH]1", "note": "[Fluorouracil, 5-fluorouracil]", "values": [
      {"measurement": "fold induction at 10 µM", "setting": "LHON cybrids (11778 G>A); [6]", "result": 1.1}
    ]},
    {"compound": "C1N2CN3CN1CN(C2)C3", "note": "[Methenamine, methenamine]", "values": [
      {"measurement": "fold induction at 10 µM", "setting": "LHON cybrids (11778 G>A); [6]", "result": 1.3}
    ]},
    {"compound": "CN1CCc2cc3c(cc2[C@H]1[C@@H]1OC(=O)c2c1ccc1c2OCO1)OCO3", "note": "[bicuculine, bicuculline]", "values": [
      {"measurement": "effect of GABAA antagonist on reversal of rotenone inhibition by zolpidem", "setting": "LHON cybrids (11778 G>A); zolpidem 30 μM and bicuculline 30 μM for 22 h, then rotenone 0.03 μM 2 h", "result": "no significant effect"}
    ]},
    {"compound": "antimycin A", "values": [
      {"measurement": "mitochondrial ATP synthesis", "setting": "[1]", "result": "inhibited the mitochondrial ATP synthesis"}
    ]},
    {"compound": "CN(Cc1cnc2nc(N)nc(N)c2n1)c1ccc(C(=O)N[C@@H](CCC(=O)O)C(=O)O)cc1", "note": "[Methotrexate, methotrexate]", "values": [
      {"measurement": "fold induction at 10 µM", "setting": "LHON cybrids (11778 G>A); [6]", "result": 1.2}
    ]},
    {"compound": "COC1=C(OC)C(=O)C(CCCCCCCCCCO)=C(C)C1=O", "note": "[idebenone]", "values": [
      {"measurement": "visual function (median # edge detections)", "setting": "Ndufs4 knockout mice", "result": "not significant"},
      {"measurement": "innate immune/inflammatory gene expression (B2m, Tlr2, Cxcl10, Ccl5, Aif1) in retina", "setting": "[3]", "result": "significantly inhibited a portion of the innate immune/inflammatory response"}
    ]},
    {"compound": "COc1ccc(OC)c(C(O)C(C)N)c1", "note": "(centres unmarked) [Methoxamine HCl, 2-amino-1-(2,5-dimethoxyphenyl)-1-propanol]", "values": [
      {"measurement": "fold induction at 10 µM", "setting": "LHON cybrids (11778 G>A); [6]", "result": 1.4}
    ]}
  ]
}
